Our source for the GI50 and TGI values is PubChem BioAssay (NCI).

The structures appear in SMILES notation.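 Five compound concentrations were applied to cells in 96-well plates for 48 hours; endpoints were derived by simple linear interpolation of the resulting dose-response curve. Abbreviation: GI50, concentration required for 50% inhibition of growth. TGI: concentration producing complete growth inhibition.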

Some test systems named below: UO-31 renal; IGROV1 ovarian; HT29 colon; CCRF-CEM leukemia; SNB-19 CNS; SF-268 CNS; NCI-H23 lung; NCI-H460 lung; SF-539 CNS; RPMI-8226 leukemia.
Common to all, as to experiment: NCI anticancer screen, dose series, 48 h

For the compound `O=C1NC(=NCCc2ccccc2F)S/C1=C\c1ccc2ncccc2c1`, the GI50 was 6.91 µM with UO-31 renal; 7.02 µM with IGROV1 ovarian; 5.87 µM in the assay on HT29 colon; 5.05 µM in the assay with CCRF-CEM leukemia; 5.68 µM in the assay with SNB-19 CNS; 7.76 µM in the assay with SF-268 CNS. Besides, the GI50 in the assay with NCI-H23 lung was 6.12 µM; in the assay with NCI-H460 lung, 6.57 µM; in the assay on SF-539 CNS, 5.18 µM; with RPMI-8226 leukemia, 4.18 µM. The TGI in the assay with UO-31 renal was over 25 µM; in the assay on IGROV1 ovarian, over 25 µM; in the assay on HT29 colon it was over 25 µM; in the assay with CCRF-CEM leukemia it was over 20.1 µM; in the assay with SNB-19 CNS, over 25 µM; in the assay with SF-268 CNS it was over 25 µM. In addition, the TGI was over 25 µM with NCI-H23 lung, over 25 µM in the assay with NCI-H460 lung, over 25 µM in the assay with SF-539 CNS and 24.9 µM with RPMI-8226 leukemia.
As to `C/C(=N\O)C1CC(CC(=O)O)C1(C)C` (centres undefined), the TGI in the assay with UO-31 renal, with IGROV1 ovarian, in the assay with HT29 colon, with CCRF-CEM leukemia, in the assay with SNB-19 CNS and in the assay on SF-268 CNS was over 100 µM each time. Moreover, the TGI with NCI-H23 lung, in the assay on NCI-H460 lung, in the assay with SF-539 CNS and with RPMI-8226 leukemia was over 100 µM each time.
`Cn1ccc(S(=O)(=O)N2CCC[C@H](Nc3nccc(-c4c(-c5cccc(O)c5)nc5occn45)n3)C2)n1`: the GI50 with UO-31 renal is 12.9 µM; with IGROV1 ovarian it was 10.9 µM; in the assay with HT29 colon, 0.732 µM; in the assay on CCRF-CEM leukemia it was 4.47 µM; in the assay on SNB-19 CNS, 46.4 µM; in the assay on SF-268 CNS, 21.4 µM. For the same compound, the GI50 in the assay with NCI-H23 lung was 12 µM; in the assay on NCI-H460 lung, 15.5 µM; in the assay with SF-539 CNS it was 17 µM; with RPMI-8226 leukemia, 14.9 µM. In addition, the TGI is 57.1 µM with UO-31 renal; 51.9 µM in the assay on IGROV1 ovarian; 34.7 µM in the assay with HT29 colon; over 100 µM with CCRF-CEM leukemia; over 100 µM in the assay on SNB-19 CNS; over 100 µM in the assay on SF-268 CNS. Further, the TGI amounted to 41.8 µM in the assay on NCI-H23 lung, 59.8 µM with NCI-H460 lung, 59.2 µM in the assay on SF-539 CNS and 46.4 µM in the assay on RPMI-8226 leukemia.
For the compound `Cc1ccc2c(-c3ccnc(Nc4cccc(C(F)(F)F)c4)n3)c(-c3ccccc3)nn2n1`, the GI50 is 1.16 µM in the assay with UO-31 renal; 2.1 µM in the assay on IGROV1 ovarian; 2.28 µM in the assay with HT29 colon; 7.77 µM in the assay on CCRF-CEM leukemia; over 17.9 µM in the assay on SNB-19 CNS; over 15.2 µM with SF-268 CNS. The GI50 with NCI-H23 lung was 11.8 µM; with NCI-H460 lung, 6.42 µM; with SF-539 CNS, 6.56 µM; with RPMI-8226 leukemia, over 14.2 µM. Moreover, the TGI was over 25 µM with UO-31 renal; 24.4 µM in the assay on IGROV1 ovarian; over 15.5 µM in the assay on HT29 colon; over 25 µM with CCRF-CEM leukemia; over 25 µM in the assay with SNB-19 CNS; over 25 µM in the assay on SF-268 CNS. Further, the TGI in the assay on NCI-H23 lung is over 25 µM; with NCI-H460 lung, over 16.4 µM; in the assay with SF-539 CNS, over 19.6 µM; with RPMI-8226 leukemia, over 25 µM.
With `Cn1cc(Nc2nccc(-c3ccc4c(c3)CN(C3COC3)CC[C@H]4NC(=O)c3cn(C(C)(C)C)nn3)n2)cn1`, the GI50 was 53.1 µM with UO-31 renal; 32 µM with IGROV1 ovarian; 33 µM in the assay on HT29 colon; over 100 µM with CCRF-CEM leukemia; over 100 µM with SNB-19 CNS; over 100 µM in the assay on SF-268 CNS. The GI50 in the assay on NCI-H23 lung is over 100 µM; in the assay on NCI-H460 lung it was 85.9 µM; in the assay with SF-539 CNS, 99.1 µM; in the assay on RPMI-8226 leukemia it was over 100 µM. Further, the TGI in the assay with UO-31 renal, in the assay on IGROV1 ovarian, in the assay on HT29 colon, with CCRF-CEM leukemia, in the assay on SNB-19 CNS and in the assay with SF-268 CNS was over 100 µM throughout. Further, the TGI with NCI-H23 lung, in the assay on NCI-H460 lung, with SF-539 CNS and in the assay on RPMI-8226 leukemia was over 100 µM each time.
In the case of `COc1cc(C(=O)/C=C/c2cccnc2Nc2ccc(Cl)cc2)cc(OC)c1OC`, the GI50 was 1.32 µM with UO-31 renal; 2.24 µM in the assay with IGROV1 ovarian; 1.43 µM with HT29 colon; 0.369 µM in the assay with CCRF-CEM leukemia; 1.52 µM with SNB-19 CNS; 1.72 µM in the assay with SF-268 CNS. The GI50 in the assay with NCI-H23 lung was 1.58 µM; in the assay on NCI-H460 lung, 1.92 µM; in the assay with SF-539 CNS it was 1.71 µM; with RPMI-8226 leukemia, 0.655 µM. Moreover, the TGI with UO-31 renal turned out to be 2.7 µM; in the assay with IGROV1 ovarian, 4.78 µM; with HT29 colon it was 3.25 µM; in the assay with CCRF-CEM leukemia it was 4.87 µM; with SNB-19 CNS it was 2.88 µM; with SF-268 CNS it was 3.19 µM. The TGI in the assay on NCI-H23 lung was 3.24 µM; in the assay with NCI-H460 lung it was 3.88 µM; in the assay on SF-539 CNS, 3.11 µM; in the assay with RPMI-8226 leukemia, 5.01 µM.
Regarding `Cc1[nH]c(N)nc(=S)c1CCCNc1ccccc1`, the TGI in the assay with UO-31 renal, in the assay on IGROV1 ovarian, with HT29 colon, in the assay on CCRF-CEM leukemia, in the assay with SNB-19 CNS and in the assay with SF-268 CNS was over 100 µM each time. The TGI in the assay with NCI-H23 lung, with NCI-H460 lung, in the assay with SF-539 CNS and in the assay with RPMI-8226 leukemia was over 100 µM each time.
Turning to `Cc1ccc(/C=C(/C#N)n2nnc3cccc(F)c32)cc1`, the GI50 is 0.515 µM in the assay with UO-31 renal; 0.453 µM in the assay with IGROV1 ovarian; 0.359 µM in the assay on HT29 colon; 0.389 µM in the assay on CCRF-CEM leukemia; 0.466 µM with SNB-19 CNS; 0.58 µM with SF-268 CNS. In addition, the GI50 in the assay with NCI-H23 lung was 0.461 µM; with NCI-H460 lung, 0.35 µM; in the assay with SF-539 CNS it was 0.247 µM; in the assay on RPMI-8226 leukemia, 0.391 µM. The TGI in the assay on UO-31 renal is 11.7 µM; in the assay with IGROV1 ovarian, 10.6 µM; with HT29 colon it was 11.9 µM; with CCRF-CEM leukemia, over 100 µM; in the assay with SNB-19 CNS, 17.4 µM; in the assay with SF-268 CNS, 12.5 µM. The TGI with NCI-H23 lung was determined as 12 µM; in the assay on NCI-H460 lung it was 2.13 µM; in the assay on SF-539 CNS, 0.657 µM.
With `NC(=S)N/N=C/C(O[C@@H](/C=N/NC(N)=S)CO)n1cnc2c(N)ncnc21` (some centres undefined), the TGI in the assay on UO-31 renal, in the assay with IGROV1 ovarian, with HT29 colon, with CCRF-CEM leukemia, with SNB-19 CNS and in the assay with SF-268 CNS was over 100 µM each time. For the same compound, the TGI was over 100 µM in the assay with NCI-H23 lung, over 100 µM with NCI-H460 lung, over 100 µM with SF-539 CNS and over 72.7 µM in the assay on RPMI-8226 leukemia.
